Assay results from patent publication US20110245316A1, “PREVENTION OR DELAY OF ONSET OF ORAL MUCOSITIS” (SCICLONE PHARMACEUTICALS, INC., priority 2010, published 2011).
“Also recorded” adds a separate entry of the source.

Test system: oral mucositis in patients receiving chemoradiation for head and neck cancer
Test: Phase 2 randomized, double-blind, placebo-controlled trial: onset of oral mucositis (WHO OM Scale) in patients receiving CT/RT
Format: in vivo, human
Conditions: for gastrostomy tube placement and use / unplanned office and emergency room visits: higher dose (0.1 mg/kg); for severe OM, percent of patients: subcutaneous 0.1 mg/kg (HD)
Source text: OM is a painful, debilitating, and costly toxicity of different chemoradiotherapy (CT/RT) regimens used to treat head and neck cancer. This trial is a phase 2, randomized, double-blind, dose-ranging, placebo-controlled three-arm study in patients receiving CT/RT for the treatment of head and neck cancer, to assess the safety and tolerability of γ-D-glutamyl-L-tryptophan (SCV-07) as well as its efficacy in delaying the onset of severe OM as assessed by the WHO Oral Mucositis Scale.
The WHO OM Scale is the standard, validated instrument used in clinical trials to measure OM: Grade 0=none; Grade 1=erythema and soreness, no ulcers; Grade 2=ulcers, able to eat a solid diet; Grade 3=ulcers; requires a liquid diet; Grade 4=ulcers, not able to tolerate a solid or liquid diet, requires IV or tube feeding.
59 eligible patients with recently diagnosed, treatment naïve, pathologically-confirmed, non-metastatic squamous cell carcinoma of the oral cavity, oropharynx, hypopharynx or larynx were enrolled and treated with a concomitant regimen of CT/RT consisting of a continuous course of external beam irradiation (IMRT eligible) with a minimum cumulative dose of 50 Gray (Gy) and cisplatin monotherapy administered using standard weekly or tri-weekly dosing regimens (80-100 mg/m^2 administered on Days 0, 21 and 42) or weekly (30-40 mg/m^2). At least two ‘at risk’ intraoral sites were included in the radiation fields and received a cumulative RT dose of at least 50 Gy. Subjects were equally randomized to receive either placebo or one of two doses of γ-D-glutamyl-L-tryptophan (0.02 or 0.1 mg/kg) on each radiation day for up to 7 weeks.
Tables 2-7 summarize the statistics for the Full Analysis Set “FAS” (57 subjects), and the completer population (52 subjects), with respect to delay of onset of severe oral mucositis. Also see FIGS. 1 and 2.
SCV-07 efficacy, dosing and scheduling parameters were assessed in hamster models of acute, fractionated and concomitant chemoradiation (CRT). […] A multicenter, prospective, blinded, randomized trial evaluated SCV-07's ability to alter OM in CRT-treated HNC patients (n=57). Cytokine and gene microarray analyses were performed for samples obtained before and on the last radiation day.

[1] = 0.10 mg/kg, Completer Population
[2] = 0.10 mg/kg, Completer Population, at 30-<35 Gy
[3] = 0.10 mg/kg, Completer Population, at 35-<40 Gy
[4] = 0.10 mg/kg, Completer Population, at 40-<45 Gy
[5] = 0.10 mg/kg, Completer Population, at 45-<50 Gy
[6] = 0.10 mg/kg, Completer Population, at 50-<55 Gy
[7] = 0.10 mg/kg, Completer Population, at 55-<60 Gy
[8] = 0.10 mg/kg, Completer Population, at 65-<70 Gy
[9] = 0.10 mg/kg, Completer Population, at ≧70 Gy
[10] = listed as γ-D-glutamyl-L-tryptophan, 0.1 mg/kg

N[C@H](CCC(=O)N[C@@H](Cc1c[nH]c2ccccc12)C(=O)O)C(=O)O [SCV-07, γ-D-glutamyl-L-tryptophan]
Cumulative Dose of RT (Gy) at Initial Onset of Ulcerative OM, Median [1]: 26 Gy | Cumulative Dose of RT (Gy) at Initial Onset of Ulcerative OM, Min [1]: 8 Gy | Cumulative Dose of Radiation (Gy) Prior to Initial Occurrence of Severe OM (Delay to Onset of Severe OM), K-M Estimate, Mean (SE) [1]: 56 (3.8) Gy | Cumulative Dose of Radiation (Gy) Prior to Initial Occurrence of Severe OM, K-M Estimate, Median (95% CI) [1]: 57 (51, NA) Gy | Cumulative Dose of Radiation (Gy) Prior to Initial Occurrence of Ulcerative OM (Delay to Onset of Ulcerative OM), K-M Estimate, Mean (SE) [1]: 30 (3.7) Gy | Cumulative Dose of Radiation (Gy) Prior to Initial Occurrence of Ulcerative OM, K-M Estimate, 25%-75% [1]: 19-46 Gy | Cumulative Dose of Radiation (Gy) Prior to Initial Occurrence of Ulcerative OM, K-M Estimate, Median (95% CI) [1]: 26 (19, 41) Gy | Time (Days) to Initial Occurrence of Sever OM, K-M Estimate, Mean (SE) [1]: 38 (2.5) Days | Time (Days) to Initial Occurrence of Sever OM, K-M Estimate, Median (95% CI) [1]: 43 (33, NA) Days | Time (Days) to Initial Occurrence of Ulcerative OM, K-M Estimate, 25%-7% [1]: 12 to 32 days | Time (Days) to Initial Occurrence of Ulcerative OM, K-M Estimate, Mean (SE) [1]: 20 (2.7) Days | Time (Days) to Initial Occurrence of Ulcerative OM, K-M Estimate, Median (95% CI) [1]: 16 (13, 31) Days | delay to onset of ulcerative OM (WHO score >1) as a function of cumulative radiation dose (0.10 mg/kg, Completer Population, FIG. 3): showed a delay to onset of OM | Cum. Percent of Subjects with Ulcerative OM (WHO > 1) (0.10 mg/kg, Completer Population, at 5-<10 Gy): 6% (1%, 37%) | Cum. Percent of Subjects with Ulcerative OM (WHO > 1) (0.10 mg/kg, Completer Population, at 10-<15 Gy): 6% (1%, 37%) | Cum. Percent of Subjects with Ulcerative OM (WHO > 1) (0.10 mg/kg, Completer Population, at 15-<20 Gy): 38% (19%, 65%) | Cum. Percent of Subjects with Ulcerative OM (WHO > 1) (0.10 mg/kg, Completer Population, at 20-<25 Gy): 50% (29%, 75%) | Cum. Percent of Subjects with Ulcerative OM (WHO > 1) (0.10 mg/kg, Completer Population, at 25-<30 Gy): 63% (40%, 85%) | Cum. Percent of Subjects with Severe OM (WHO > 2) [2]: 13% (3%, 41%) | Cum. Percent of Subjects with Ulcerative OM (WHO > 1) [2]: 69% (46%, 89%) | Cum. Percent of Subjects with Severe OM (WHO > 2) [3]: 13% (3%, 41%) | Cum. Percent of Subjects with Ulcerative OM (WHO > 1) [3]: 69% (46%, 89%) | Cum. Percent of Subjects with Severe OM (WHO > 2) [4]: 19% (6%, 48%) | Cum. Percent of Subjects with Ulcerative OM (WHO > 1) [4]: 75% (53%, 92%) | Cum. Percent of Subjects with Severe OM (WHO > 2) [5]: 25% (10%, 54%) | Cum. Percent of Subjects with Ulcerative OM (WHO > 1) [5]: 75% (53%, 92%) | Cum. Percent of Subjects with Severe OM (WHO > 2) [6]: 38% (19%, 65%) | Cum. Percent of Subjects with Ulcerative OM (WHO > 1) [6]: 94% (75%, 100%) | Cum. Percent of Subjects with Severe OM (WHO > 2) [7]: 56% (34%, 80%) | Cum. Percent of Subjects with Ulcerative OM (WHO > 1) [7]: 94% (75%, 100%) | Cum. Percent of Subjects with Ulcerative OM (WHO > 1) (0.10 mg/kg, Completer Population, at 60-<65 Gy): 94% (75%, 100%) | Cum. Percent of Subjects with Severe OM (WHO > 2) (0.10 mg/kg, Completer Population, at 60->65 Gy): 64% (41%, 86%) | Cum. Percent of Subjects with Severe OM (WHO > 2) [8]: 73% (48%, 92%) | Cum. Percent of Subjects with Ulcerative OM (WHO > 1) [8]: 94% (75%, 100%) | Cum. Percent of Subjects with Ulcerative OM (WHO > 1) (0.10 mg/kg, Completer Population, at <5 Gy): 0% (0%, 0%) | Cum. Percent of Subjects with Severe OM (WHO > 2) (0.10 mg/kg, Completer Population, at <30 Gy): 6% (1%, 37%) | Cum. Percent of Subjects with Severe OM (WHO > 2) [9]: 73% (48%, 92%) | Cum. Percent of Subjects with Ulcerative OM (WHO > 1) [9]: 94% (75%, 100%) | Cumulative Dose of RT (Gy) at Initial Onset of Severe OM, Max (0.10 mg/kg, FAS population): 72 Gy | Cumulative Dose of RT (Gy) at Initial Onset of Severe OM, Mean (SD) (0.10 mg/kg, FAS population): 54 (15.6) Gy | Cumulative Dose of RT (Gy) at Initial Onset of Severe OM, Median (0.10 mg/kg, FAS population): 56 Gy | Cumulative Dose of RT (Gy) at Initial Onset of Severe OM, Min (0.10 mg/kg, FAS population): 20 Gy | Cumulative Dose of Radiation (Gy) Prior to Initial Occurrence of Severe OM (Delay to Onset of Severe OM), K-M Estimate, Mean (SE) (0.10 mg/kg, FAS population): 54 (3.9) Gy | Cumulative Dose of Radiation (Gy) Prior to Initial Occurrence of Severe OM, K-M Estimate, Median (95% CI) (0.10 mg/kg, FAS population): 56 (46, 70) Gy | Time (Days) to Initial Occurrence of Severe OM, K-M Estimate, Mean (SE) (0.10 mg/kg, FAS population): 37 (2.7) Days | Time (Days) to Initial Occurrence of Severe OM, K-M Estimate, Median (95% CI) (0.10 mg/kg, FAS population): 40 (32, NA) Days | Cum. Percent of Subjects with Severe OM (WHO > 2) (0.10 mg/kg, FAS population, at 30-<35 Gy): 18% (6%, 45%) | Cum. Percent of Subjects with Severe OM (WHO > 2) (0.10 mg/kg, FAS population, at 35-<40 Gy): 18% (6%, 45%) | Cum. Percent of Subjects with Severe OM (WHO > 2) (0.10 mg/kg, FAS population, at 40-<45 Gy): 24% (10%, 51%) | Cum. Percent of Subjects with Severe OM (WHO > 2) (0.10 mg/kg, FAS population, at 45-<50 Gy): 29% (13%, 57%) | Cum. Percent of Subjects with Severe OM (WHO > 2) (0.10 mg/kg, FAS population, at 50-<55 Gy): 41% (22%, 67%) | Cum. Percent of Subjects with Severe OM (WHO > 2) (0.10 mg/kg, FAS population, at 55-<60 Gy): 59% (37%, 81%) | Cum. Percent of Subjects with Severe OM (WHO > 2) (0.10 mg/kg, FAS population, at 60-<65 Gy): 66% (44%, 87%) | Cum. Percent of Subjects with Severe OM (WHO > 2) (0.10 mg/kg, FAS population, at 65-<70 Gy): 74% (51%, 93%) | Cum. Percent of Subjects with Severe OM (WHO > 2) (0.10 mg/kg, FAS population, at >30 Gy): 6% (1%, 35%) | Cum. Percent of Subjects with Severe OM (WHO > 2) (0.10 mg/kg, FAS population, at ≧70 Gy): 74% (51%, 93%) | delay to onset of severe OM (WHO score >2) as a function of cumulative radiation dose (0.10 mg/kg, Full Analysis Set, FIG. 1): showed a delay to onset of OM | delay to onset of severe OM (WHO score >2) as a function of cumulative radiation dose (0.10 mg/kg, patients that completed radiation therapy, FIG. 2): showed a delay to onset of OM | treatment breaks (HD (0.1 mg/kg)): fewer | Cox regression analysis of time to UOM initial occurrence, decrease vs. placebo (HD SCV-07 cohort vs. placebo): 52% | Number of Days that Patients used the G-Tube (SCV-07 high dose): 44 days | Percent of Patients with G-Tube Placement (SCV-07 high dose (n = 3/20)): 18% | Number of Days that Patients used the G-Tube (SCV-07 low dose): 57 days | Percent of Patients with G-Tube Placement (SCV-07 low dose (n = 4/20)): 20% | delay to onset of ulcerative OM (WHO scale, grades 2 to 4) (high dose (0.1 mg/kg) vs placebo, 0.1 mg/kg): more pronounced clinical benefit; also recorded: delayed | delay to onset of ulcerative OM (WHO scale, grades 2 to 4) (high dose (0.1 mg/kg) vs placebo, listed as γ-D-glutamyl-L-tryptophan, 0.1 mg/kg): showed a trend towards delay in onset | days of gastrostomy tube use (high dose vs placebo and low dose): fewer days | delay to severe OM (WHO scale, grades 3 and 4), primary endpoint (higher dose (0.1 mg/kg) vs placebo, 0.1 mg/kg): showed a trend towards delay to severe OM; also recorded: delayed severe OM vs. placebo | delay to severe OM (WHO scale, grades 3 and 4), primary endpoint (higher dose (0.1 mg/kg) vs placebo, listed as γ-D-glutamyl-L-tryptophan, 0.1 mg/kg): showed a trend towards delay in onset | gastrostomy tube placement and use (0.1 mg/kg): fewer G-tubes placed | unplanned office and emergency room visits (0.1 mg/kg): fewer | gastrostomy tube placement and use [10]: less reliance on gastrostomy tube placement and use | unplanned office and emergency room visits [10]: fewer unplanned office and emergency room visits | delay to onset of ulcerative OM (WHO scale, grades 2 to 4) (low dose (0.02 mg/kg) vs placebo): appeared similar or slightly better than placebo | delay to severe OM (WHO scale, grades 3 and 4), primary endpoint (low dose (0.02 mg/kg) vs placebo, 0.02 mg/kg): appeared to do worse than placebo and not | placement of a gastrostomy feeding tube (patients receiving SCV-07 vs placebo): less likely to require placement of a gastrostomy feeding tube | severe OM, percent of patients (at 50 Gy, placebo 42%): 29% | severe OM, percent of patients (at ≦40Gy, placebo 32%): 18%
